Here are results for three molecules from US6900242B2, “Lactone formulations and method of use” (Magnachem International Laboratories, Inc., priority 2001, dated 2005).

In brackets after ≈: the same amount, converted by molar mass.

The subject of assay [1] is Staphyloccus aureus ATCC 12598. Kind of assay: Anti-bacterial activity, sensitivity disc zone of inhibition. Type of assay: cell-based, Staphylococcus aureus. The note with it: for zone of inhibition: St. a. The procedure:
(§1) The material obtained in Example 1 was screened for antibiotic activity against Staphylococcus aureus, Pseudomonas aeroginosa, Escherichia coli, and Klebsiella pneumoniae. • Solvent: Buffer Phosphate 0.1 N, pH=8.0 • Antibiotic: LMSV-6 (Pure, Securolide) • Medium coat: 2 mL/100 mL • Inoculum: 4 mL/Petri Dish Preparation of Culture Medium: [table] Microorganisms used were standardized by American Type Culture Collection (ATCC), used in first generation: • E. coli ATCC 352 18, Lot 202602, Exp. 05/2000 (19-258) • *Kleb. Klebsiela pneumoniae, ATCC 13882, Lot 202 174, Exp 02/2000 (19-152) • *Ps. A Pseudomona aeroginosa ATCC 27853, Lot 202992, Exp 08/2000 (19-060) • *St. A Staphyloccus aureus ATCC 12598, Lot 202564, Exp 05/2000 (19-137) • **Str. P Streptoccus pyogenes, ATCC 2 1547, Lote 202691, Exp 06/2000 (19-190) • *=Atmospheric oxygen, Temp=35±2° C. • **=Atmopheric CO2, Temp=35±2° C.

The subject of assay [2] is Klebsiela pneumoniae, ATCC 13882. The assay is described as above. Type of assay: cell-based, Klebsiella pneumoniae. The note with it: for zone of inhibition: Kleb. Here is the method:
as §1

For another assay, the system named is E. coli ATCC 352 18. The assay is described as above. The note with it: for zone of inhibition: E. coli. In kind it is cell-based, Escherichia coli. Here is the method:
as §1

For assay [3], the system named is Pseudomona aeroginosa ATCC 27853. The description is as above. In kind it is cell-based, Pseudomonas aeroginosa. The note with it: for zone of inhibition: Ps. A. Here is the method:
as §1

Assay [4] has as its system HEP-2 cells (laringe carcinoma). Kind of assay: Cytotoxic assay (MTT) in HEP-2 cells. In kind it is cell-based. The following applies: Homo sapiens, HEp-2, HEP-2 cells. An excerpt:
(§2) There are a large number of biological assays that require the measurement of surviving or proliferating mammalian cells. This can be achieved by different methods, e.g. counting cells that exclude or include a dye; measuring released ^51Cr labeled protein after cell lysis; and measuring incorporation of radiactive nucleotides radiactive [^3H]thymidine) or [^125I]iododeoxyuridine) during cells proliferation.
(§3) Viable cells can be measured by using any of several staining methods, but a more accurate method is the multiwell scanning spectrophotometers (ELISA readers) which can measure large number of samples with a high degree of precision.
(§4) A colorimetric assay to detect living cells, utilizing a colorless substrate that is modified to a colored product by any living cell, but not by dead cells or tissue culture medium, was used. […] The Formazan concentration in a gradient of Securolide concentrations was measured by multiwells scanning spectrophotometer (ELISA reader). Data analysis was then used to establish the Inhibitory concentration fifty (IC50) which is a quantitative parameter of antineoplastic activity. […]
(§5) Assessment of cell growth inhibition was determined according to the methods of Skehan et aL, J. Nat. […] Optical density was measured at 570 nm. […]

Another assay relates to H. pylori. As to the kind of experiment: Patient endoscopy before and after treatment, H. pylori. The note with it: patients. Type of assay: in vivo, human. An excerpt: There are several methods used clinically to determine whether Helicobacter pylori is present in a human subject. These are employed for initial diagnosis of infection prior to treatment, as well as for determining the success of treatment in eradicating the organism from the patient. Endoscopy of the patient provides samples of tissue which can be cultured in a microaerophilic environment to diagnose H. pylori infection. Alternatively, the sample can be examined histologically by employing one of a number of stains such as Giemsa or hematoxylin-eosin. An urea test which takes advantage of the production of urease by H. pylori, can also be applied. This test relies on the formation of ammonia from the urea hydrolysis, which results in an observable change in pH, that is an indication of the […] of H. pylori.

Another assay relates to bacterial infection. As to the kind of experiment: In vivo treatment of bacterial infection, rats infected in surgery. The note with it: doses calculated by comparison with ceftriaxone.
The test system of another assay is Candida albicans. As to the kind of experiment: Candida albicans MIC / minimal fungicidal concentration assays. The note with it: concomitant assays. Type of assay: cell-based. Here is the method:
Candida albicans cells were prepared as indicated in the J. Antimicrobial Chemotherapy 38, 579-587, and were washed 3 times with a 0.1 M phosphate solution and used immediately to determine the minimal inhibitory concentration (MIC). The MICs were determined by modification of a microtitre plate according to the standard method of the laboratory clinical standards of the Comite National. RPMI-1640, and L-glutamine buffered at pH 7 with a 0.15 M solution of MOPS (3-[N-morpholino]propane sulfonic acid). Candida albicans cells (1.5×10^3 cells/ml) were added to the wells of a 96-well plate containing RPMI-1640 and dilutions of antifungal agents. The results were read 48 hours after incubation at 35° C. and the MIC or the minimal inhibitory concentration which inhibited the growth of the Candida albicans cells was determined. After reading the MIC at 48 hours, the plates were shaken and 10 μl of well aliquot was removed from the wells which was placed on rectangular disks containing dextrose sugar. The plates were incubated for 48 hours at 35° C. and the minimal fungicidal concentration and the concentration of the antifungal agent at which there were no number of colony forming units.

For assay [5], the system named is Staphylococcus aureus, Pseudomonas aeroginosa, Escherichia coli, and Klebsiella pneumoniae. Kind of assay: Anti-bacterial activity of LMSV-6 dilutions (text summary, whole panel). In kind it is cell-based. The following applies: dilutions 10, 20, 30 and 40 microliters/10 mL of LMSV-6 in Tween 60-2%. The procedure: The material obtained in Example 1 was screened for antibiotic activity against Staphylococcus aureus, Pseudomonas aeroginosa, Escherichia coli, and Klebsiella pneumoniae.
• Solvent: Buffer Phosphate 0.1 N, pH=8.0 • Antibiotic: LMSV-6 (Pure, Securolide) • Medium coat: 2 mL/100 mL • Inoculum: 4 mL/Petri Dish Preparation of Culture Medium: […]

Another assay has as its system Sarcina lutea. As to the kind of experiment: Minimum Inhibitory Concentration, poured in plate, sensitivity disc. Type of assay: cell-based. The procedure: • Methodology: Poured in plate, medium Mueler Hinton pH=8 • Buffer pH=8 for ceftriaxone pattern dilution • Tween 20 at 2% for LMSV-6 (Securolide) dilution • Microorganism: Sarcina lutea • Sample(s): LMSV-6 (16.0 microliters/100 mL and 10 microliter applied to sensitivity disc). Methodology: Poured in plate, medium Mueler Hinton p&8 • Buffer pH=8 for ceftriaxone pattern dilution • Tween 20 at 2% for LMSV-6 (Securolide) dilution • Used Microorganism: Sarcina lutea • Sample(S): LMSV-6 (10 microliters/mL and 20 microliter applied to sensitivity disc) • Control Pattern (P): Ceftriaxone (disc with 10 mcg) Results: […]

Assay [6] deals with anaerobic gram negative organisms associated with gingivitis. As to the kind of experiment: Topical application to affected gingiva (gingivitis). In kind it is in vivo. The note with it: topically applied to the affected gingiva.
For assay [7], the system named is HELA cells (cervix carcinoma). Kind of assay: Cytotoxic assay (MTT) in HELA cells. In kind it is cell-based. The following applies: Homo sapiens.
Excerpt: as §2, §3, §4, §5

The subject of the next assay is Fusobacterium. Kind of assay: MIC, procedure of Walker et al. In kind it is cell-based. The source says: (§6) The minimum inhibitory concentration (MIC) needed to kill Bacteroides assaccharolyticus (Forsyth strain), determined according to the procedure of Walker et al (Antimicrobial and Chemotherapy, Vol. 16, p. 452-457, (1979), is between 6 to 60 micrograms per ml. The MIC value for B. gingivalis is 6 micrograms per ml. The MIC value for B. gracilis and Fusobacterium, other gram negative organisms is about 25 for each; and the MIC value for the gram positive organism Actinomyces viscosus is 60 for the aerobic strain and 60 for the anaerobic strain.

For assay [8], the system named is Bacteroides assaccharolyticus (Forsyth strain). Kind of assay: MIC, procedure of Walker et al. Type of assay: cell-based. The note with it: read-out: minimum inhibitory concentration (MIC).
Excerpt: as §6

A further assay concerns Actinomyces viscosus. As to the kind of experiment: MIC, procedure of Walker et al. In kind it is cell-based.
Excerpt: as §6

A further assay has as its system B. gracilis. As to the kind of experiment: MIC, procedure of Walker et al. Type of assay: cell-based.
Excerpt: as §6

A further assay relates to B. gingivalis. Kind of assay: MIC, procedure of Walker et al. Type of assay: cell-based. The following applies: Porphyromonas gingivalis.
Excerpt: as §6

The mark [9] stands for this setting: disc of sensitivity 50 micrograms.
Setting [10] is: disc of sensitivity 5 micrograms.

In the case of `C[C@@H]1O[C@@H]1P(=O)(O)O` [osf, Fosfomicina, reference compound], the zone of inhibition amounted to 18 mm in assay [1] (setting [9]), 22 mm in assay [2] (setting [9]), 10 mm in the assay with E. coli ATCC 352 18 (setting [9]) and 6 mm in assay [3] (setting [9]).
`O=C(O)c1cn(C2CC2)c2cc(N3CCNCC3)c(F)cc2c1=O` [Ciprof, Ciprofloxacina, reference compound]: the zone of inhibition in [1] (setting [10]) is listed as 20 mm; in assay [2] (setting [10]), 26 mm; in the assay with E. coli ATCC 352 18 (setting [10]), 28 mm; in [3] (setting [10]) it was 12 mm.
Take `C=C1CCOC1=O` [LMSV-6]: the half-maximal inhibitory concentration (IC50) stood at 10.4 µg/mL (≈ 106 µM) in assay [4] (population of 10^5 Cells/mL), 37.4 µg/mL (≈ 381 µM) in assay [4] (population of 10^6 Cells/mL), 7.37 µg/mL (≈ 75.1 µM) in [7] (population of 10^5 Cells/mL) and 27.3 µg/mL (≈ 278 µM) in [7] (population of 10^6 Cells/mL). In addition, the “H. pylori by endoscopy before and after treatment” value with H. pylori is “decrease or absence of H. pylori”. The “treatment of bacterial infection” value in the assay with bacterial infection was “successfully treated”. In addition, the “activity against Candida albicans” value in the assay on Candida albicans was “high activity”. Further, the zone of inhibition in [1] (LMSV-6 (puro)) is given as 30 mm; in assay [2] (LMSV-6 (puro)) it was 40 mm; with E. coli ATCC 352 18 (LMSV-6 (puro)), 30 (mm); in [3] (LMSV-6 (puro)), 30 mm. The “inhibition of growth” value was “inhibits growth” in [1] (Staphyloccus aureus, 5 microliters); “inhibits growth” in assay [2] (Klebsiela pneumonae, 5 microliters); “inhibits growth” with E. coli ATCC 352 18 (Escherichia coli, 5 microliters); “inhibits growth” in assay [3] (Pseudomonas aeroginosa, 5 microliters). The “inhibition of bacterial growth” value in assay [5] was “did not exhibit inhibition of bacterial growth”. Further, the “inhibition (zone)” value in the assay on Sarcina lutea (0.2 microliters of LMSV-6) is 3.3 mm. The entries for the “ZONE OF INHIBITION” value in the assay with Sarcina lutea (applied volume to disc 1.6 microliters) and in the assay with Sarcina lutea (applied volume to disc 5 microliters) were 20.0 mm and 42.0 mm, respectively. Moreover, the “Minimum Inhibitory Concentration (MIC)” value in the assay on Sarcina lutea (approximate) is about 0.2 µL. Besides, the “effect against gingivitis organisms” value in [6] was “selectively effective”. Besides, the MIC value result with Fusobacterium is “about 25”; with Actinomyces viscosus (aerobic strain), 60 µg/mL (≈ 612 µM); against Actinomyces viscosus (anaerobic strain), 60 µg/mL (≈ 612 µM); against B. gracilis it was “about 25”. In addition, the MIC in [8] is 6 to 60 µg/mL (≈ 61.2 to 612 µM); with B. gingivalis, 6 µg/mL (≈ 61.2 µM).
